The values below come from article PMC3225327 (Journal of Biomedical Science, 2011).

Entries after “also recorded” stand apart in the source; their conditions may differ.

One test concerns PDE3. In words: Inhibition of PDE3 activity, two-step procedure. Type of test: biochemical. Particulars: homogenate of guinea pig lungs or hearts. The procedure:
(§1) Activities of PDE1~5 in the homogenate of guinea pig lungs or hearts were measured by a two-step procedure according to the previous method, using cAMP with [^3H]-cAMP or cGMP with [^3H]-cGMP as substrates. […] The reagents and homogenate were mixed on ice, and the reaction was initiated by transferring the mixture to a water bath at 37°C. Following a 30-min incubation, the reaction was stopped by transferring the reaction vessel to a bath of boiling water for 3 min. After cooling on ice, 20 μl of a 1 mg/ml solution of Crotalus atrox snake venom was added to the reaction mixture, and the mixture was incubated at 37°C for 10 min. Unreacted [^3H]-cAMP or [^3H]-cGMP was removed by the addition of 500 μl of a 1-in-1 Tris-HCl (40 mM) buffer suspension of Dowex resin (1 × 8-200) with incubation on ice for 30 min. Each tube was then centrifuged at 3700 g for 2 min, and 150 μl of the supernatant was removed for liquid scintillation counting. […] The total protein in each fraction used was assayed according to a previous method. PDE activities are reported as nmol/mg/min.

For test [1], the system named is high-affinity rolipram-binding sites (HARBSs) of guinea pig brain cell membranes. In words: Displacement of 2 nM [3H]-rolipram from high-affinity rolipram-binding sites (PDE4H). The method, then:
When the above-mentioned guinea pigs were sacrificed, the whole brains were removed and homogenized with a glass/Teflon homogenizer (Glas-Col, Terre Haute, IN, USA) in 10 volumes of cold medium (pH 6.5) containing 20 mM Bis-Tris, 2 mM benzamidine, 2 mM EDTA, 50 mM sodium chloride, 0.1 mM PMSF, and 1 mM dithiothreitol. At 4°C, the homogenate was centrifuged at 170 g for 5 min to remove connective tissues and blood vessels. The suspended homogenate was then re-centrifuged at 40,000 g for 30 min to separate the cytosolic and particulate portions. The particulate portion was re-suspended in a suspension at a concentration of 400 mg/ml (wet weight/volume), after washing three times with homogenizing buffer. The particulate portion mainly consisted of cell membranes. […] Briefly, the reaction buffer consisted of 50 mM Tris-HCl and 5 mM MgCl2 (pH 7.5). […] After 1 h, the reaction was terminated by moving the reaction vessel into crushed ice. Then the reaction mixture was transferred onto Whatman GF/B glass-fiber filters, which were soaked in a 0.3% polyethyleneimine solution in a mini-funnel.

In the next test the test system is PDE2. In words: Inhibition of PDE2 activity, two-step procedure. Format: biochemical. Conditions: homogenate of guinea pig lungs or hearts. The procedure: as §1
The test system of test [2] is inflammatory cells in bronchoalveolar lavage fluid. The experiment in a line: Inflammatory cell counts in BALF of sensitized and challenged mice. Particulars: 3~30 μmol/kg p.o. Type of test: in vivo, BABL/c mice. The method, then:
According to the schedule (Figure 1), ten female BABL/c mice in each group were sensitized by an intraperitoneal (i.p.) injection of 20 μg of OVA emulsified in 2.25 mg of an aluminum hydroxide gel, prepared from aluminum sulfate hexadecahydrate, in a total volume of 100 μl on days 0 and 14. On day 21, these mice were injected with (i.p.) 100 μl of a mixture of 1% OVA and Freund's complete adjuvant (1:1). Mice were challenged via the airway using 1% OVA in saline for 30 min on days 28, 29, and 30 by ultrasonic nebulization. After the last of OVA challenges, AHR was assessed on day 32 (48 h after 1% OVA provocation) in each group. […] For comparison, sham-treated mice were challenged with saline instead of 1% OVA (non-challenged). […] AHR was assessed using two methods: (1) in anesthetized ventilated mice, AHR was assessed as previously described by measuring changes in the airway resistance (RL, cmH2O/ml/sec) and lung dynamic compliance (Cdyn, ml/cmH2O) after challenge with aerosolized methacholine (MCh, 0.78~25 mg/ml) using the FlexiVent system (SCIREQ, Montreal, Quebec, Canada). Anesthetized (urethane 600 mg/kg and chloralose 120 mg/kg, i.p.), tracheostomized (stainless-steel cannula, 18 G) mice were mechanically ventilated (at 150 breaths/min, with a tidal volume of 10 ml/kg, positive end-expiratory pressure of 3 cmH2O). (2) in unrestrained animals by barometric plethysmography using a whole-body plethysmograph (WBP) and analyzed using software of Life Science Suite P3 Analysis Modules (Gould, LDS Test and Measurement LLC, Valley View, OH, USA). Mice were placed into the main chamber of the WBP, and the baseline enhanced pause (Penh) value was determined. […] Twenty-four hours after Penh determination, these mice were anesthetized with pentobarbital (50 mg/kg, i.p.), and the lungs were lavaged via a tracheal tube with PBS (1 × 1.0 ml, 37°C). After lavage, blood was collected from the jugular vein and allowed to sit so that it would coagulate. The collected bronchoalveolar lavage fluid (BALF) and coagulated blood were respectively centrifuged at 630 g for 7 min and at 3700 g for 10 min at 4°C. After centrifugation, the BALF and serum supernatants were stored at -20°C until determination of cytokines, including interleukin (IL)-2, IL-4, IL-5, tumor necrosis factor (TNF)-α, and interferon (IFN)-γ by flow cytometric methods using mouse T helper (Th)1/Th2 cytokine CBA kits, and of total immunoglobulin (Ig)E or IgG2a using ELISA kits (Pharmingen, San Diego, CA, USA) according to the respective recommendations of the manufacturers. OVA-specific IgE was measured as described previously. Wells were coated with 100 μl of OVA (20 μg/ml) instead of the capture antibody. Levels are expressed in arbitrary units, where 1 arbitrary unit equals the optical density of the sample divided by the optical density of unchallenged mouse serum or BALF (standard). The BALF pellet was resuspended in ACK lysing buffer (1.658 g NH4Cl, 0.2 g KHCO3 and 1.44 mg EDTA in 200 ml of water) to lyse the residual erythrocytes in each sample. The number of inflammatory cells was counted using a hemocytometer (Hausser Scientific, Horsham, PA, USA). Cytospun slides were stained and differentiated in a blinded fashion by counting at least 100 cells under light microscopy. All undetectable data (< 1 pg/ml) of cytokines were taken as 0 pg/ml.

A further test deals with PDE1. In words: Inhibition of PDE1 activity, two-step procedure. Format: biochemical. Conditions: homogenate of guinea pig lungs or hearts. The method, then: as §1

In general, IC50 refers to the midpoint of a concentration-inhibition curve. High values mean lower potency, low ones higher potency. As a reminder, the EC50 is the midpoint of the concentration-response curve. In the case of `COc1cc(O)c2c(c1)O[C@H](c1ccc(OC)c(OC)c1)CC2=O` [HDME, hesperetin-7,3'-O-dimethylether], the half-maximal inhibitory concentration (IC50) in the test on PDE3 stood at 24.6 ± 3.5 µM. For the same molecule, the concentration giving a half-maximal response (EC50) in test [1] (2 nM [3H]-rolipram, 30°C, 1 h, read-out: EC50 (PDE4H) for displacing [3H]-rolipram binding) turned out to be 107 ± 39.5 µM. In addition, the “PDE4H/PDE4L ratio (therapeutic ratio)” value in test [1] (EC50 of [3H]-rolipram displacement / IC50 of PDE4 inhibition) was 35.5. In addition, the IC50 in the test with PDE2 is more than 100 µM. Also, in test [2], the “effect on increase in number of eosinophils in BALF” value is “significantly suppressed; also recorded: abolished”, the “effect on increase in number of lymphocytes in BALF” value is given as “significantly suppressed”, the “effect on increase in number of macrophages in BALF” value is reported as “significantly suppressed” and the “effect on increase in number of neutrophils in BALF” value was “significantly suppressed”. In test [2], the “effect on increase in number of total inflammatory cells in BALF” value is “significantly suppressed”. This molecule also came in with a concentration for half-maximal inhibition (IC50) in the test with PDE1 of 22.1 ± 6.4 µM.
